pIC50: −log10 of the molar value.
Assays:
[1] = target: recombinant human (rh) PDE5A (Homo sapiens (Human), UniProt O76074); assay: Phosphodiesterase-5 activity assay (Example 110), radiometric SPA; format: biochemical
Protocol: The inhibition of recombinant human (rh) PDE5A by test compounds is measured in a radiometric assay based on Scintillation Proximity Assay (SPA) technology. The substrate [3H]cGMP/cGMP is hydrolysed to [3H] 5′ GMP/5′ GMP contingent on the activity of rhPDE5A. The ensuing [3H] 5′ GMP/5′ GMP but not [3H] cGMP/cGMP binds to SPA yttrium silicate beads in the presence of Zn^++ stimulating the scintillant within the bead to emit light that is detected by a ß-counter. The assay is performed in a 96 well format.
The assay is done in 20 mM Tris HCl pH 7.4, 5 mM MgCl2, […] cGMP/[3H] cGMP (about 60000 dpm/well) substrate with rhPDE5A1 (GST tagged, SIGMA E9034) added to an amount not exceeding 20% cGMP hydrolysis within 20 min in Tris 20 mM pH 7.4 supplemented with 0.01% bovine serum albumin (BSA) in the presence of test compounds or vehicle (0.1% DMSO). The final assay volume amounts to 100 μl and the reaction is run for 20 min at 37° C.
The hydrolysis of [3H] cGMP/cGMP by rhPDE5A is terminated by adding SPA beads at 50 µl/well (Perkin Elmer, RPNQ0024), pre-diluted in water as per manufacturer's instructions and supplemented with 3-isobutyl-1-methylxanthine (1 mM). Beads are allowed to sediment for at least 30 min before measurement in a Wallac Microbeta 2 (Perkin Elmer).
In general, test compounds are added at seven different concentrations from […] in log steps. […] Results (IC50) are given as the mean from at least two independent experiments each performed in triplicate.

[2] = target: PDE5 enzyme isolated from human platelets (Homo sapiens (Human), UniProt O76074); assay: PDE5 assay (Example 109), formation of 5′GMP from cGMP, SPA; details: for % inhibition at 5.0E−09 M: percent inhibition of control enzyme activity at 5.0E−09 M, assay of Example 109;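 as to all read-outs here: tritiated 5′GMP counted by scintillation after SPA bead capture, enzyme reaction run 60 min at 22 °C, basal control is the mixture without enzyme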
Protocol: Evaluation of the effects of compounds of the present invention on the activity of the human phosphodiesterase-5 quantified by measuring the formation of 5′GMP from cGMP using PDE5 enzyme isolated from human platelets.
Thereafter, the reaction is initiated by addition of the enzyme and the mixture is incubated for 60 min at 22° C.
For basal control measurements, the enzyme is omitted from the reaction mixture. Following incubation SPA beads are added. After 20 min at 22° C. under shaking, the amount of [3H]5′GMP is quantified with a scintillation counter (Topcount, Packard).
The standard inhibitory reference compound is dipyridamole, which is tested in each experiment at several concentrations to obtain an inhibition curve from which its IC50 value is calculated.

[3] = Measurements of human plasma protein binding; format: in vitro ADME; details: for recovery: human
Protocol: An aliquot of 200 μL of human plasma containing test compound was spiked into donor well (red chamber) of the insert. 350 μL of PBS was spiked into receiver well (white chamber) of the insert.
The samples were matrix equilibrated with opposite matrix (25 μL of plasma/buffer sample was matched with 25 μL of blank buffer/plasma). Matrix matched samples were precipitated with 200 μL of acetonitrile containing internal standard. Samples were vortexed at 1000 rpm for 5 min and centrifuged at 4000 rpm for 10 min. Supernatant was separated, diluted 2 fold with water and analysed in LC-MS/MS. TO control samples were processed immediately after the preparation of plasma working stock solutions. These samples serves as a measure for calculating the percentage recovery of test compounds.

SMILES | pIC50 [2] | % inhibition at 5.0E−09 M [2] [%] | also measured
CCCc1c(/C=N/O)n(C)c2c(=O)[nH]c(-c3cc(S(=O)(=O)N4CCN(CCO[N+](=O)[O-])CC4)ccc3OCC)nc12 [Compound 2g, (E)-2-(4-((4-ethoxy-3-(6-((hydroxyimino)methyl)-5-methyl-4-oxo-7-propyl-4,5-dihydro-3H-pyrrolo[3,2-d]pyrimidin-2-yl)phenyl)sulfonyl)piperazin-1-yl)ethyl nitrate] |  |  | pIC50 [1]: 7.51
CCCOc1ccc(S(=O)(=O)N2CCC(CCCO[N+](=O)[O-])CC2)cc1-c1nc2c(CCC)cn(CC)c2c(=O)[nH]1 [Compound 1d, 3-(1-((3-(5-ethyl-4-oxo-7-propyl-4,5-dihydro-3H-pyrrolo[3,2-d]pyrimidin-2-yl)-4-propoxyphenyl)sulfonyl)piperidin-4-yl)propyl nitrate] | < 8.00 | 13.4 | 
CCCOc1ccc(S(=O)(=O)N2CCC(CCO)CC2)cc1-c1nc2c(CCC)cn(CC)c2c(=O)[nH]1 [Compound 5, 5-ethyl-2-(5-((4-(2-hydroxyethyl)piperidin-1-yl)sulfonyl)-2-propoxyphenyl)-7-propyl-3,5-dihydro-4H-pyrrolo[3,2-d]pyrimidin-4-one] | 9.54 | 74.4 | % Bound in Plasma [3]: 99.87%; fraction unbound [3]: 0.0013; recovery [3]: 102%; PDE5 inhibition (in words) ([2]; human cGMP-specific PDE5, refers to Table 1): much more potent PDE5 inhibitor
CCCOc1ccc(S(=O)(=O)N2CCC(CCO)CC2)cc1-c1nc2c(CCC)c(CO)n(CC)c2c(=O)[nH]1 [Compound 6, 5-ethyl-2-(5-((4-(2-hydroxyethyl)piperidin-1-yl)sulfonyl)-2-propoxyphenyl)-6-(hydroxymethyl)-7-propyl-3,5-dihydro-4H-pyrrolo[3,2-d]pyrimidin-4-one] | 8.62 |  | 
CCCc1cn(C)c2c(=O)[nH]c(-c3cc(S(=O)(=O)N4CCN(CCCO[N+](=O)[O-])CC4)ccc3OCC)nc12 [Compound 2b, 3-(4-((4-ethoxy-3-(5-methyl-4-oxo-7-propyl-4,5-dihydro-3H-pyrrolo[3,2-d]pyrimidin-2-yl)phenyl)sulfonyl)piperazin-1-yl)propyl nitrate] | 8.70 | 18.2 | 
CCCc1cn(C)c2c(=O)[nH]c(-c3cc(S(=O)(=O)N4CCC(CCO)CC4)ccc3OCC)nc12 [Compound 14, 2-(2-ethoxy-5-((4-(2-hydroxyethyl)piperidin-1-yl)sulfonyl)phenyl)-5-methyl-7-propyl-3,5-dihydro-4H-pyrrolo[3,2-d]pyrimidin-4-one] | 9.52 |  | % Bound in Plasma [3]: 99.43%; fraction unbound [3]: 0.0057; recovery [3]: 98.9%
CCCOc1ccc(S(=O)(=O)N2CCC(CCO[N+](=O)[O-])CC2)cc1-c1nc2c(CCC)cn(C)c2c(=O)[nH]1 [Compound 3a, 2-(1-((3-(5-methyl-4-oxo-7-propyl-4,5-dihydro-3H-pyrrolo[3,2-d]pyrimidin-2-yl)-4-propoxyphenyl)sulfonyl)piperidin-4-yl)ethyl nitrate] |  | 6.5 | 
CCCOc1ccc(S(=O)(=O)N2CCC(CCCO)CC2)cc1-c1nc2c(CCC)cn(CC)c2c(=O)[nH]1 [Compound 15, 5-ethyl-2-(5-((4-(3-hydroxypropyl)piperidin-1-yl)sulfonyl)-2-propoxyphenyl)-7-propyl-3,5-dihydro-4H-pyrrolo[3,2-d]pyrimidin-4-one] | 8.74 | 50.3 | 
CC(=O)CC(c1ccccc1)c1c(O)c2ccccc2oc1=O (stereo not shown) [Warfarin, reference compound] |  |  | % Bound in Plasma [3]: 97.28%; fraction unbound [3]: 0.0272; recovery [3]: 101%
CCCOc1ccc(S(=O)(=O)N2CCN(CCO[N+](=O)[O-])CC2)cc1-c1nc2c(CCC)c(/C=N/O)n(CC)c2c(=O)[nH]1 [Compound 1a, (E)-2-(4-((3-(5-ethyl-6-((hydroxyimino)methyl)-4-oxo-7-propyl-4,5-dihydro-3H-pyrrolo[3,2-d]pyrimidin-2-yl)-4-propoxyphenyl)sulfonyl)piperazin-1-yl)ethyl nitrate] | 7.92 | 20.7 | 
CCCOc1ccc(S(=O)(=O)N2CCC(CCO)CC2)cc1-c1nc2c(CCC)cn(C)c2c(=O)[nH]1 [Compound 29, 2-(5-((4-(2-hydroxyethyl)piperidin-1-yl)sulfonyl)-2-propoxyphenyl)-5-methyl-7-propyl-3,5-dihydro-4H-pyrrolo[3,2-d]pyrimidin-4-one] |  | 46.4 | 
CCCc1cn(C)c2c(=O)[nH]c(-c3cc(S(=O)(=O)N4CCN(CCO[N+](=O)[O-])CC4)ccc3OCC)nc12 [Compound 2d, 2-(4-((4-ethoxy-3-(5-methyl-4-oxo-7-propyl-4,5-dihydro-3H-pyrrolo[3,2-d]pyrimidin-2-yl)phenyl)sulfonyl)piperazin-1-yl)ethyl nitrate] | 8.92 | 57.8 | 
CCCc1cn(C)c2c(=O)[nH]c(-c3cc(S(=O)(=O)N4CCC(CCO[N+](=O)[O-])CC4)ccc3OCC)nc12 [Compound 2c, 2-(1-((4-ethoxy-3-(5-methyl-4-oxo-7-propyl-4,5-dihydro-3H-pyrrolo[3,2-d]pyrimidin-2-yl)phenyl)sulfonyl)piperidin-4-yl)ethyl nitrate] |  |  | % Bound in Plasma [3]: 99.65%; fraction unbound [3]: 0.0035; recovery [3]: 105%
CCCc1cn(C)c2c(=O)[nH]c(-c3cc(S(=O)(=O)N4CCN(CCO)CC4)ccc3OCC)nc12 [Compound 20, 2-(2-ethoxy-5-((4-(2-hydroxyethyl)piperazin-1-yl)sulfonyl)phenyl)-5-methyl-7-propyl-3,5-dihydro-4H-pyrrolo[3,2-d]pyrimidin-4-one] |  | 41.1 | 
CCCc1c(/C=N/O)n(C)c2c(=O)[nH]c(-c3cc(S(=O)(=O)N4CCC(CCO)CC4)ccc3OCC)nc12 [Compound 17, (E)-2-(2-ethoxy-5-((4-(2-hydroxyethyl)piperidin-1-yl)sulfonyl)phenyl)-5-methyl-4-oxo-7-propyl-4,5-dihydro-3H-pyrrolo[3,2-d]pyrimidine-6-carbaldehyde oxime] |  | 33.2 | 
CCCc1nn(C)c2c(=O)[nH]c(-c3cc(S(=O)(=O)N4CCN(C)CC4)ccc3OCC)nc12 [sildenafil, reference compound] |  |  | % Bound in Plasma [3]: 96.41%; fraction unbound [3]: 0.0359; recovery [3]: 104%
CCCOc1ccc(S(=O)(=O)N2CCN(CCO)CC2)cc1-c1nc2c(CCC)cn(C)c2c(=O)[nH]1 [Compound 32, 2-(5-((4-(2-hydroxyethyl)piperazin-1-yl)sulfonyl)-2-propoxyphenyl)-5-methyl-7-propyl-3,5-dihydro-4H-pyrrolo[3,2-d]pyrimidin-4-one] |  | 53.4 | 
CCCOc1ccc(S(=O)(=O)N2CCN(CCO)CC2)cc1-c1nc2c(CCC)cn(CC)c2c(=O)[nH]1 [mirodenafil, 5-ethyl-2-(5-((4-(2-hydroxyethyl)piperazin-1-yl)sulfonyl)-2-propoxyphenyl)-7-propyl-3,5-dihydro-4H-pyrrolo[3,2-d]pyrimidin-4-one, reference compound] | 9.47 | 64.9 | % Bound in Plasma [3]: 98.94%; fraction unbound [3]: 0.0106; recovery [3]: 99.2%
CCCc1cn(C)c2c(=O)[nH]c(-c3cc(S(=O)(=O)N4CCN(CCCO)CC4)ccc3OCC)nc12 [Compound 23, 2-(2-ethoxy-5-((4-(3-hydroxypropyl)piperazin-1-yl)sulfonyl)phenyl)-5-methyl-7-propyl-3,5-dihydro-4H-pyrrolo[3,2-d]pyrimidin-4-one] |  | 36.7 | 
CCCc1c(/C=N/O)n(C)c2c(=O)[nH]c(-c3cc(S(=O)(=O)N4CCC(CCO[N+](=O)[O-])CC4)ccc3OCC)nc12 [Compound 2a, (E)-2-(1-((4-ethoxy-3-(6-((hydroxyimino)methyl)-5-methyl-4-oxo-7-propyl-4,5-dihydro-3H-pyrrolo[3,2-d]pyrimidin-2-yl)phenyl)sulfonyl)piperidin-4-yl)ethyl nitrate] | 8.70 | 13.4 | 
CCCOc1ccc(S(=O)(=O)N2CCC(CCO)CC2)cc1-c1nc2c(CCC)c(/C=N/O)n(CC)c2c(=O)[nH]1 [Compound 8, (E)-5-ethyl-2-(5-((4-(2-hydroxyethyl)piperidin-1-yl)sulfonyl)-2-propoxyphenyl)-4-oxo-7-propyl-4,5-dihydro-3H-pyrrolo[3,2-d]pyrimidine-6-carbaldehyde oxime] | 8.57 | 71.2 | 

— US11155558B2, “Dual mode of action soluble guanylate cyclase activators and phosphodiesterase inhibitors and uses thereof” (TOPADUR PHARMA AG, priority 2017, dated 2021)
